# Laboratory results taken from patent US7968558B2, “Amidine derivatives of 2-heteroaryl-quinazolines and quinolines; potent analgesics and anti-inflammatory agents” (Rottapharm S.p.A., priority 2006, dated 2011).
# Where a name gives a salt, the structure may show the parent alone.
# How the values were obtained:
# [1] = tested on: IL-1β induced PGE2 production; test: PGE2 production induced by IL-1β in chondrocyte cell culture; type: cell-based, rabbit; settings: at 10 μM
# Excerpt: (§1) Conversely, compounds of the invention are able to inhibit, at micromolar concentration, IL-1β induced PGE2 production in cellular systems. This inhibition effect on the production of the pro-inflammatory mediator PGE2, instead of to be ascribed to a direct COX-2 inhibition, as happens with Celecoxib and other COX-2 inhibitors, is in this case due to inhibition of cytokine induced COX-2 expression as proven in cellular systems.
# (§2) Effectiveness in inhibition of PGE2 production induced by IL-1β in chondrocyte cell culture, as well as inhibition in IL-1β induced COX-2 expression in SW1353 human chondrosarcoma cell line, is summarized in Table 2, for representative compounds of the invention.
# COX-2 expression = test: IL-1β induced COX-2 expression in SW1353 human chondrosarcoma cell line; type: cell-based; settings: at 10 μM
# Excerpt: as §1, §2
# IL-1 production = IL-1 production in IL-1 stimulated human chondrosarcoma cell line; type: cell-based; settings: Compound concentration is 10 μM
# Excerpt: (§3) The compounds of the invention have been found effective in interfering with cytokine production in several cell lines, representative examples of this effect are reported in Table 3, for two representative cytokines, in IL-1 stimulated human chondrosarcoma cell line.
# IL-6 production = IL-6 production in IL-1 stimulated human chondrosarcoma cell line; type: cell-based; settings: Compound concentration is 10 μM
# Excerpt: as §3
# [2] = tested on: Zymosan-induced mechanical hyperalgesia; test: Zymosan-induced mechanical hyperalgesia (Randall-Selitto); type: in vivo, rat
# Method: (§4) The interplantar injection of Zymosan-induced mechanical hyperalgesia was used as a model of inflammatory pain (Meller, Neuropharmacology, 1994, 33, 1471-1478). In this model, typically a male Sprague-Dawley or Wistar rat (200-250 g) receives an interplantar injection of 3 mg/100 μl zymosan into one hind paw. A marked inflammation occurs in this hind paw. Drugs are administered orally for evaluation of efficacy, 30 min. before the inflammatory insult. The hyperalgesia induced by zymosan administration was evaluated using the Randall-Selitto method (Arch. Int. Pharmacodyn., 1957, 111, 409). The quantitation of the analgesic effect is achieved by an analgesimeter, which consist in applying to the inflamed paw an increasing weight (from 130-140 g up to 500 g). The difference in the mechanical pain threshold between the basal value (generally 230-250 g) and the one tolerated by the animals treated with the drug, determined 4 hours after the inflammatory challenge, is defined as mechanical hyperalgesia.
# (§5) Mechanical hyperalgesia is expressed for the compounds of the invention as ED50, which is the dose of the administered compound able to increase the pain threshold by 50% in comparison with the group of control animals. The corresponding ED100, representing the dose able of reducing of 100% the pain threshold, can be calculated for those cases where there is a linear dose-response relationship. In vivo anti-inflammatory effect exerted by the compound of the invention can be assessed in the same Zymosan induced inflammation test described above, by measuring the volume of the oedema induced by the inflammatory agent. The oedema was evaluated as the increase in the volume of the Zymosan injected paw within a time of 0-2 hrs. The measurements of the variation of the oedema volume of the paw were recorded using hydroplethysmometer, which consists of two plastic cuvettes containing a surfactant liquid, the larger one being used for immersion of the paw, connected to the smaller one which contains a trans-ducer capable of recording small displacements of the volume used for the measure. The paw is immersed in the cuvettes up to the tibiotarsal joint. The volume of the liquid displaced is proportional to the extent of the inflammation. The efficacy of the compounds of the invention in preventing oedema formation is expressed as ED30, and is measured 2 hours after the inflammatory challenge, and represents the dose able of reducing of 30%, the Zymosan induced paw volume increase in comparison to control animals (animals treated with Zymosan but treated with only distilled water instead of the testing compound). The corresponding ED50, representing the dose able of reducing of 50% the zymosan induced paw volume increase, can be calculated for those cases where there is a linear dose-response relationship.
# (§6) In both the experiments, for each test compound, at least three doses were used, with 10 animals per group. Compounds of the invention were tested at 10, 20 and 40 mg/Kg.
# [3] = tested on: Zymosan induced paw volume increase; test: Zymosan-induced paw oedema; type: in vivo, rat
# Method: as §4, §5, §6
# CFA-induced hyperalgesia = test: CFA model of chronic inflammatory pain; type: in vivo, rat
# [4] = tested on: mechanical hyperalgesia associated with STZ-induced diabetes; test: STZ-induced diabetes mechanical hyperalgesia (neuropathic pain); type: in vivo, rat
# Method: Streptozotocin (STZ)-induced diabetes in the rat has been increasingly used as a model of painful diabetic neuropathy to assess the efficacies of potential analgesic agents (C. Courteix, Pain 1993, 53, 81-8). The compounds of the invention were tested for efficacy in reducing mechanical hyperalgesia associated with STZ-induced diabetes in the rat, according to the experimental model as described by the literature. Diabetes was produced with the injection of a single dose (75 mg/Kg i.p.) of STZ. In the following four weeks after the induction of diabetes the clinical symptoms (weight, body and skin temperature, motility and hyperglycemia) progressively developed by the animals, are strictly monitored. After four weeks, the scores obtained in diabetic rats to various pain stimuli (in particular mechanical stimuli) were grater than those in normal rats, indicating hyperalgesia. The hyperalgesia induced by diabetes was evaluated using the Randall-Selitto method as above described, and quantitated using the analgesimeter. Also in this case, the difference in the mechanical pain threshold between the basal value (generally 230-250 g) and the one tolerated by the animals treated with the drug, is defined as mechanical hyperalgesia. The compounds of the invention were administered i.p. (solution, Tween 80, 10% in saline) at different doses, and mechanical hyperalgesia was measured at the reported time, as maximum percent effect (MPE) which represents the difference (%) in pain threshold between the animals treated with the drug and the controls that received only the vehicle, compared with the weight borne by naïf non-diabetic controls. A 100% protection means that the diabetic animals treated with the compound can tolerate the same stimulus (weight) as the naïf non-diabetic animals. MPE higher than 100% means that the diabetic animal treated with the compound can tolerate stimuli (weight) higher than the control non-diabetic animals (hypoalgesia).
# [5] = tested on: acetic acid-induced abdominal writhes; test: Acetic acid-induced writhing test; type: in vivo, mice; settings: for MPE (%): 30 min. before acetic acid
# Method: With the aim of assessing whether the compounds of the invention are able to inhibit responses to peritoneal irritation-induced visceral pain, the acetic acid-induced writhing assay was used in mice to determine the degree of anti-nociception.
# The writhing test is a model of inflammatory pain that has long been used as a screening tool for evaluation of analgesic and anti-inflammatory agents (HDJ Collier, B. J. Pharmacol Chemother., 1968, 32, 295-310). The test was performed inducing nociception by an i.p. injection of acetic acid 1%, 0.1 mL/10 g of body weight. Mice were pre-treated (subcutaneously, s.c., three different doses: 3, 10, 30 mg/Kg) with the tested compounds 30 min. before acetic acid injection, while control animals received a similar volume of saline solution. A group of mice was treated with Paracetamol (200 mg/Kg, s.c.) as reference drug. The number of abdominal writhes (full extension of both hind paws) was cumulatively counted every 5 minutes over a period of 20 min. immediately after the acetic acid injection. The anti-nociceptive activity was expressed as inhibition of abdominal writhes as maximum percent effect (MPE), which represents the difference (%) in pain threshold between the animals treated with the drug and the ones that received only the vehicle.
smiles,measurement,setting,value
"CC(=N)Nc1ccc2nc(-c3ccc4c(c3)OCO4)ccc2c1 [Example 2, N-[2-(1,3-benzodioxol-5-yl)quinolin-6-yl]acetamidine dihydrochloride]","Effects on PGE2 production in rabbit Chondrocyte culture, % at 10 μM",[1],70% at 10 μM
same,"Inhibition of COX-2 expression in SW1353 human chondrosarcoma cell line, % at 10 μM",COX-2 expression,59% at 10 μM
same,Inhibition (%) of IL-1 production,IL-1 production,45%
same,Inhibition (%) of IL-6 production,IL-6 production,78%
same,ED50,"[2]; Rattus norvegicus, read-out: Analgesia ED50",10.7 mg/kg
same,Analgesia ED100,"[2]; oral, calculated from linear dose-response",22 mg/kg
same,ED50,"[3]; Rattus norvegicus, po, read-out: Oedema Reduction ED50",98 mg/kg
same,Oedema Reduction ED30,"[3]; oral, 2 hours after challenge",15.0 mg/kg
same,MPE 0.5 hrs.,CFA-induced hyperalgesia; 3 mg/Kg i.p.,36%
same,MPE 1.5 hrs.,CFA-induced hyperalgesia; 3 mg/Kg i.p.,40%
same,MPE 3 hrs.,CFA-induced hyperalgesia; 3 mg/Kg i.p.,7%
same,MPE 0.5 hrs.,CFA-induced hyperalgesia; 10 mg/Kg i.p.,94%
same,MPE 1.5 hrs.,CFA-induced hyperalgesia; 10 mg/Kg i.p.,34%
same,MPE 3 hrs.,CFA-induced hyperalgesia; 10 mg/Kg i.p.,11%
same,MPE 24 hrs.,CFA-induced hyperalgesia; 10 mg/Kg i.p.,13%
same,MPE 0.5 hrs.,CFA-induced hyperalgesia; 30 mg/Kg i.p.,188%
same,MPE 1.5 hrs.,CFA-induced hyperalgesia; 30 mg/Kg i.p.,81%
same,MPE 3 hrs.,CFA-induced hyperalgesia; 30 mg/Kg i.p.,34%
same,MPE 24 hrs.,CFA-induced hyperalgesia; 30 mg/Kg i.p.,9%
same,MPE 0.5 hrs.,[4]; 3 mg/Kg i.p.,32%
same,MPE 1.5 hrs.,[4]; 3 mg/Kg i.p.,75%
same,MPE 3 hrs.,[4]; 3 mg/Kg i.p.,8%
same,MPE 0.5 hrs.,[4]; 10 mg/Kg i.p.,76%
same,MPE 1.5 hrs.,[4]; 10 mg/Kg i.p.,107%
same,MPE 3 hrs.,[4]; 10 mg/Kg i.p.,13%
same,MPE 0.5 hrs.,[4]; 30 mg/Kg i.p.,151%
same,MPE 1.5 hrs.,[4]; 30 mg/Kg i.p.,124%
same,MPE 3 hrs.,[4]; 30 mg/Kg i.p.,93%
same,MPE (%),[5]; 3 mg/Kg s.c.,59%
same,MPE (%),[5]; 10 mg/Kg s.c.,61%
same,MPE (%),[5]; 30 mg/Kg s.c.,57%
same,ED50,"[5]; Mus musculus, sc",< 3 mg/kg
